Test results: ChEMBL document CHEMBL1126997, “Synthesis and antibacterial activity of two catechol-bearing penems” (1993)

Experiments:
Format in all cases: functional
Escherichia coli [1] = test: Compound was tested in vitro for antimicrobial activity against Escherichia coli DC0
Providencia stuartii = test: Compound was tested in vitro for antimicrobial activity against Providencia stuartii T90
Escherichia coli [2] = test: Compound was tested in vitro for antimicrobial activity against Escherichia coli NCTC 10418
Escherichia coli [3] = test: Compound was tested in vitro for antimicrobial activity against Escherichia coli DC2: cell wall deficient mutant strain
Proteus mirabilis = test: Compound was tested in vitro for antimicrobial activity against Proteus mirabilis 977
Pseudomonas aeruginosa [4] = test: Compound was tested in vitro for antimicrobial activity against Pseudomonas aeruginosa NCTC 10662
Pseudomonas aeruginosa [5] = test: Compound was tested in vitro for antimicrobial activity against Pseudomonas aeruginosa K799
Pseudomonas aeruginosa [6] = test: Compound was tested in vitro for antimicrobial activity against Pseudomonas aeruginosa Dagleish: beta-lactamase producer

Row | SMILES | MIC (Escherichia coli [1]) [µg/mL] | MIC (Providencia stuartii) [µg/mL] | MIC (Escherichia coli [2]) [µg/mL] | MIC (Escherichia coli [3]) [µg/mL] | MIC (Proteus mirabilis) [µg/mL] | MIC (Pseudomonas aeruginosa [4]) [µg/mL] | MIC (Pseudomonas aeruginosa [5]) [µg/mL] | MIC (Pseudomonas aeruginosa [6]) [µg/mL]
1 | CC(=O)Oc1cccc(C(=O)OCC2=C(C(=O)[O-])N3C(=O)C[C@H]3S2)c1OC(C)=O.[Na+] | > 32 | > 32 | 8 | 0.5 | 16 | 8 | > 32 | > 32
2 | C[C@@H](O)[C@H]1C(=O)N2C(C(=O)[O-])=C(COC(=O)c3ccc(O)c(O)c3)S[C@H]12.[Na+] | 1 | 32 | 0.5 | 0.12 | 32 | 32 | > 64 | > 64
3 | O=C([O-])C1=C(CO)S[C@@H]2CC(=O)N12.[Na+] | 32 | 32 | 16 | 32 | 32 | > 64 | > 64 | > 64
4 | C[C@@H](O)[C@H]1C(=O)N2C(C(=O)[O-])=C(CO)S[C@H]12.[Na+] | 8 | 16 | 8 | 8 | 16 | 64 | 64 | 64
